Assay results: patent US8034791B2, “Activation of Egr-1 promoter by DNA damaging chemotherapeutics” (The University of Chicago, priority 2001, dated 2011)
Where two headings read alike, the source gives them in different places.

Experiments:
PROb xenografts [1] = conditions: for induction of TNF-α protein: PROb xenografts, vector + IP agent vs vector alone, cisplatin 9, cyclophosphamide 160, doxorubicin 15, 5-FU 100, gemcitabine 500 mg/kg
Protocol: (§1) Saline or chemotherapeutic agents administered IP on days 1 and 2, including 9 mg/kg cisplatin, 160 mg/kg cyclophosphamide, 15 mg/kg doxorubicin, 100 mg/kg 5-FU and 500 mg/kg gemcitabine. Animals were euthanized, and xenografts were harvested 24 hrs after the second IP injection. Xenografts were snap-frozen in liquid nitrogen and homogenized in RIPA buffer (150 mM NaCl, 10 mM Tris pH 7.5, 5 mM EDTA pH 7.5, 100 mM PMSF, 1 µg/ml leupeptin and 2 μg/ml aprotinin) using a Brinkman Polytron homogenizer (Kinematica AG, Lucerne, Switzerland). After three freeze-thaw lysis cycles, the homogenate was centrifuged at 7800×g in a Sorvall RC-5C SS34 rotor (Kendro Laboratory Products, Newtown, Conn.) for 10 min at 4° C. TNF-α levels in the supernatants were measured by ELISA as described above.

PROb xenografts [2] = type: in vivo, nude mice; conditions: IT vector 5×10^9 p.u. + IP agent vs vector plus NS, cisplatin 9, cyclophosphamide 160, doxorubicin 15, 5-FU 100, gemcitabine 500 mg/kg
Protocol: (§2) In vivo measurement of TNF-α protein. PC-3 (1×10^7 cells) or PROb cells (5×10^6) in 100 μl PBS were injected subcutaneously into the right hind limb of nude mice. Tumor-bearing mice received IT Ad.Egr.TNF (5×10^9 p.u. in 10 μl) with 250 μl of complete media with NS or a chemotherapeutic agent, including cisplatin (9 mg/kg), cyclophosphamide (160 mg/kg), doxorubicin (15 mg/kg), 5-fluorouracil (100 mg/kg) and gemcitabine (500 mg/kg). Each mouse IP injections were administered 20 hrs after transfection, and two consecutive IT and IP injections were given. Animals were euthanized, and xenografts were harvested 48 hrs after the second IP injection. Xenografts were snap-frozen in liquid nitrogen and homogenized in RIPA buffer (150 mM NaCl, 10 mM Tris at pH 7.5, 5 mM EDTA at pH 7.5, 100 mM PMSF, 1 μg/ml leupeptin and 2 μg/ml aprotinin). After three freeze-thaw lysis cycles, the homogenate was centrifuged for 10 minutes at 4° C. TNF-α levels in the supernatants were measured as described above.

PC-3 xenografts [3] = type: in vivo, nude mice; conditions: IT vector 5×10^9 p.u. + IP agent vs vector and NS, cisplatin 9, cyclophosphamide 160, doxorubicin 15, 5-FU 100 mg/kg
Protocol: as §2

PC-3 xenografts [4] = type: in vivo, athymic nude mice; conditions: vector + IP agent days 1 and 2, cisplatin 9, cyclophosphamide 160, doxorubicin 15, 5-FU 100, gemcitabine 500 mg/kg
Protocol: as §1

PC-3 cells [5] = test: Chemo-sensitivity by MTS assay, PC-3 cells; type: cell-based, human; conditions: PC-3, Ad.Egr-TNF.11D and chemotherapy 24 hrs
Protocol: (§3) Chemo-sensitivity of PC-3 and PROb cells as determined by MTS assay. PC-3 and PROb cells were plated at a density of 10^5 cells/100 μl medium in 96-well tissue culture plates and incubated overnight. […] After incubation, 200 μl of complete media, with or without chemotherapeutic agents, was added. Chemotherapeutic agents used were at final concentrations of cisplatin at 46 and 460 μM, doxorubicin at 3 and 300 μM, 5-fluorouracil at 2 and 200 mM and paclitaxel at 1.4 and 140 μM. Media was removed 24 hrs later and each well was rinsed with 200 μl of complete media (CM) and aspirated. 100 μl of CM was then added with 20 μl of CellTiter 96® Aqueous One Solution Cell Proliferation Assay solution (Promega, Madison, Wis.), and the cells were allowed to incubate for 1 hr. Absorbance was measured at 490-650 nm.

PROb cells [6] = test: Chemo-inducibility of Ad.Egr-TNF.11D in vitro, PROb cells; type: cell-based, rat
Protocol: (§4) PC-3 and PROb cells were plated, infected with Ad.Egr.TNF, and incubated as discussed above. After incubation, 200 μl of CM, with or without chemotherapeutic agents, including cisplatin (250 μM), doxorubicin (3 μM), 5-fluorouracil (100 mM), gemcitabine (3 mM) and paclitaxel (14 μM) were added. Conditioned medium was harvested 24 hrs. later, and TNF-α concentration was measured (Quantikine Human TNF-α ELISA kit, R & D Systems, Minneapolis, Minn.).

PC-3 cells [7] = test: Chemo-inducibility of Ad.Egr-TNF.11D in vitro, PC-3 cells
Protocol: as §4

Egr-1 promoter [8] = test: In vitro luciferase reporter assay, PROb cells; type: cell-based, rat
Protocol: (§5) In vitro luciferase reporter assay. […] JM109 competent cells (Stratagene, La Jolla, Calif.) were transformed with these plasmids, endotoxin-free maxipreps (Qiagen, Valencia, Calif.) were prepared, and product confirmation was performed by PCR, sequencing, enzyme restriction, and gel electrophoresis.
(§6) All groups were co-transfected with the Renilla luciferase reporter plasmid construct pRL-TK (HSV thymidine kinase promoter) to normalize for transfection efficiency. […] Cells were harvested 6 hrs later, and luciferase activity was measured using the Dual-Luciferase reporter assay system (Promega).

PROb cells [9] = test: Preliminary in vitro TNF-α induction, PROb cells; type: cell-based, rat; conditions: PROb cells treated with Ad.TNF (100 MOI), 24 hrs; cisplatin 250 μM, doxorubicin 3 μM, 5-FU 20 mM, paclitaxel 14 μM
Protocol: (§7) In vitro measurement of TNF-α protein. PC-3 and PROb cells were plated in 96-well plates, grown overnight, and infected with Ad.Egr.TNF at 100 multiplicities of infection, incubated for three hrs, and were then treated with cisplatin (250 μM), doxorubicin (3 μM), 5-FU (20 mM) or paclitaxel (14 μM). Supernatants were harvested 24 hrs later and human TNF-α production was quantified by ELISA. Experiments were performed in quintuplicate.

PROb xenografts [10] = test: In vivo regrowth study, PROb xenografts; design: species or system athymic nude mice; conditions: IT vector 2×10^8 p.u., IP cisplatin 3 mg/kg, 4 daily injections, cisplatin line = with null vector
Protocol: (§8) In vivo regrowth studies. Seg-1 or PROb cells (5×10^6/0.1 ml) were injected in the right hind limb of nude mice. […] IP NS or cisplatin injections were given following the IT vector injection, and 4 consecutive daily IT and IP injections were given. Xenografts were measured every 2 days using calipers and tumor volume was calculated (length×width×thickness)/2. Fractional tumor volumes (V/Vo, Vo=day 0 volume) were calculated and plotted.

Egr-1 promoter [11] = test: In vitro luciferase reporter assay, Seg-1 cells; type: cell-based, human
Protocol: as §5, §6

Seg-1 xenografts = test: In vivo regrowth study, Seg-1 xenografts; design: species or system athymic nude mice; conditions: IT vector 2×10^8 p.u., IP cisplatin 3 mg/kg, 4 daily injections, cisplatin line = with null vector
Protocol: as §8

PROb cells [12] = test: Chemo-sensitivity by MTS assay, PROb cells; type: cell-based, rat; conditions: Ad.Egr-TNF.11D and chemotherapy 24 hrs
Protocol: as §3

PC-3 cells [13] = test: Preliminary in vitro TNF-α induction, PC-3 cells; type: cell-based, human; conditions: vector treated PC-3 cells (100 MOI), 24 hrs; cisplatin 250 μM, doxorubicin 3 μM, 5-FU 20 mM, paclitaxel 14 μM
Protocol: as §7

PC-3 cells [14] = test: N-acetyl cysteine effects on TNF-α production in vitro, PC-3 cells; type: cell-based, human
Protocol: (§9) N-acetyl cysteine effects on TNF-α production in vitro. PC-3 and PROb cells were plated and infected with Ad.Egr-TNF.11D as described above. PC-3 and PROb cells were treated with NAC at 0 mM, 10 mM, 20 mM and 30 mM, followed immediately by the addition of 100 mM 5-FU. Conditioned medium was collected after 24 hrs of incubation at 37° C. and stored at −20° C. TNF-α levels were determined by ELISA.
(§10) PC-3 and PROb cells were plated and infected with Ad.Egr-TNF.11D as above. Prior to the addition of chemotherapeutic agents (cisplatin, doxorubicin, 5-FU, gemcitabine and paclitaxel), 20 mM NAC in 0.1 ml complete medium was added to each well. Conditioned medium was collected after 24 hrs. of incubation at 37° C., and stored at −20° C. TNF-α levels were determined by ELISA.

PROb cells [15] = test: N-acetyl cysteine effects on TNF-α production in vitro, PROb cells; type: cell-based, rat
Protocol: as §9, §10

[16] = higher concentration: cisplatin 460 μM, doxorubicin 300 μM, 5-FU 200 mM, taxol 140 μM
[17] = lower concentration: cisplatin 46 μM, doxorubicin 3 μM, 5-FU 2 mM, taxol 1.4 μM
[18] = vector-infected PROb cells, 24 hrs, cisplatin 250 μM, doxorubicin 3 μM, 5-FU 100 mM, gemcitabine 3 mM, paclitaxel 14 μM
[19] = vector-infected PC-3 cells, 24 hrs, cisplatin 250 μM, 5-FU 100 mM, gemcitabine 3 mM, paclitaxel 14 μM

| Compound | induction of TNF-α protein (PROb xenografts [1]) [fold] | increased TNF-α levels (PROb xenografts [2]) [fold] | induced TNF-α (PC-3 xenografts [3]) [fold] | increase in TNF-α levels (PC-3 xenografts [4]) [fold] | surviving fraction (PC-3 cells [5]; [16]) [%] | surviving fraction (PC-3 cells [5]; [17]) [%] | increased TNF levels (PROb cells [9]) [fold] | surviving fraction (PROb cells [12]; [16]) [%] | surviving fraction (PROb cells [12]; [17]) [%] | increased TNF levels (PC-3 cells [13]) [fold] | increase in TNF-α levels (PROb cells [6]; [18]) [fold] | increase in TNF-α levels (PC-3 cells [7]; [19]) [fold] | other results |
| --- | --- | --- | --- | --- | --- | --- | --- | --- | --- | --- | --- | --- | --- |
| O=P1(N(CCCl)CCCl)NCCCO1 (centres unmarked) [cyclophosphamide, Cyclophosphamide] | 3.0 | 2.8 | 4.4 | 4.4 |  |  |  |  |  |  |  |  |  |
| N.N.[Cl][Pt][Cl] [cisplatin] | 2.6 | 1.9 | 3.5 | 3.1 | 60 | 90 | 1.6 | 77 | 77 | 6.5 |  |  | increase in TNF-α levels (PROb cells [6]): 1.3 fold; increase in TNF-α levels (PC-3 cells [7]): 3.8 fold; LA (Egr-1 promoter [8]; PROb cells transfected with pGL3 425, 50 μM cisplatin): 49.40; increase in LA (Egr-1 promoter [8]; PROb cells transfected with pGL3 425, 50 μM cisplatin vs untreated control): 3.6 fold; tumor regression (PROb xenografts [10]): moderate tumor regression; LA (Egr-1 promoter [11]; Seg-1 cells transfected with pGL3 425, 50 μM cisplatin): 2.89; increase in LA (Egr-1 promoter [11]; Seg-1 cells transfected with pGL3 425, 50 μM cisplatin vs untreated control): 2.0 fold; tumor regression (Seg-1 xenografts): moderate tumor regression |
| CC(=O)N[C@@H](CS)C(=O)O [NAC, N-Acetylcysteine] |  |  |  |  |  |  |  |  |  |  |  |  | effect on concentration of TNF-α protein (PC-3 cells [14]; Ad.Egr-TNF.11D transduced PC-3 cells treated with cisplatin, 5-FU, gemcitabine and paclitaxel, 20 mM NAC): significantly decreased the concentration of TNF-α protein; effect on concentration of TNF-α protein (PC-3 cells [14]; PC-3 cells infected with Ad.Egr-TNF.11D and treated with 100 mM 5-FU, NAC 10 mM to 30 mM): decrease the concentration of TNF-α protein; effect on induction of TNF-α (PROb cells [15]; PROb cells treated with cisplatin, 5-FU, gemcitabine or paclitaxel (data not shown)): significantly reduced the induction of TNF-α; effect on induction of TNF-α (PROb cells [15]; PROb cells, 3 μM doxorubicin, 20 mM NAC): significantly reduced the induction of TNF-α |
| O=c1[nH]cc(F)c(=O)[nH]1 [5-FU, 5-fluorouracil] | 1.9 | 1.9 | 4.2 | 4.4 | 20 | 80 | 2.3 | 38 | 69 | 1.8 | 1.7 | 67.4 |  |
| CC(=O)O[C@H]1C(=O)[C@@]2(C)[C@H]([C@H](OC(=O)c3ccccc3)[C@]3(O)C[C@H](OC(=O)[C@H](O)[C@@H](NC(=O)c4ccccc4)c4ccccc4)C(C)=C1C3(C)C)[C@]1(OC(C)=O)CO[C@@H]1C[C@@H]2O [paclitaxel, Paclitaxel] |  |  |  |  | 10 | 80 | 3.0 | 8 | 85 | 1.8 | 4.5 | 1.7 | systemic toxicity (PROb xenografts [1]; mouse, in vivo): severe systemic toxicity |
| Gemcitabine diphosphate | 2.5 | 1.8 |  | 3.1 |  |  | 5.4 |  |  |  | 3.5 | 2.7 |  |
